According to patent US4309559A, “Sulphonamides useful as pesticides” (FBC Limited, priority 1977, dated 1982):
Like-named read-outs stand apart in the source and are kept apart here.

Columns and labels:
[1] = tested on: potato blight, Phytophthora infestans; assay type: in vivo; conditions: 5 days, controls less than 5%
[2] = tested on: potato blight Phytophthora infestans; assay type: in vivo; conditions: 5 days, controls less than 5%
[3] = tested on: barley powdery mildew Erysiphe graminis; test: Barley powdery mildew control on barley plants; assay type: in vivo; conditions: 2000 ppm; soil and leaves; 10 days; controls less than 5%
[4] = tested on: Ryegrass (Lolium perenne); test: Soil incorporation (attaclay/sand dust), growth regulatory or herbicidal effects, ryegrass; assay type: in vivo; conditions: 504 h, soil incorporation 130 ppm, 21 days, 0=no effect, 100=complete kill/suppression, read-out: growth regulatory or herbicidal effect score
Text: (§1) The compounds listed below were each formulated as an attaclay/sand dust and incorporated into John Innes I potting compost at a rate equivalent to 26 parts per million weight/volume of active ingredient to soil and placed in anodised aluminium pans, 19 cm long×9.5 cm wide×5.0 cm deep. This rate is approximately equivalent to a soil surface application of 11.2 kg active ingredient/hectare cultivated to a depth of 5 cm. Seeds of the species listed below were sown in the treated soil, watered and placed in a controlled environment room (22° C.; 65-85% relative humidity; 14 hours per day artificial illumination at 13,000 lux) for 21 days. The plants were then visually assessed for any growth regulatory or herbicidal effects. All differences from an untreated control were scored on a scale from 0-100, where 0 signifies no effect and 100 signifies complete kill.
(§2) The compounds listed below were tested according to the procedure of Examples 56-60 but at 130 parts per million weight/volume of active ingredient to soil. This rate is approximately equivalent to a soil surface application of 56 kg active ingredient per hectare cultivated to a depth of 5 cm.
(§3) The product of Example 95 was tested according to the procedure of Examples 56-60 but at 130 and 26 parts per million weight/volume. The results were as follows:
(§4) N-(2-oxopropyl)-2'-chloro-6'-methyl-methanesulphonanilide, formulated as an attaclay/sand dust, was incorporated in John Innes I potting compost at a rate equivalent to 130 parts per million weight/volume of active ingredient to soil and placed in anodised aluminium pans, 19 cm long×9.5 cm wide×5.0 cm deep. These rates are approximately equivalent to a soil surface application of 56 kg active ingredient per hectare cultivated to a depth of 5 cm. Seeds of Peas, Mustard, Linseed, Maize, Oats and Ryegrass were sown in the treated soil, watered and placed in a controlled environment room (22° C.; 65-85% relative humidity; 14 hours artificial illumination at 13000 lux) for 21 days.
(§5) The plants were then visually assessed for any growth regulatory or herbicidal effects. All differences from an untreated control were scored on a scale from 0-100, where 0 signifies no effect and 100 signifies complete suppression.

[5] = tested on: Ryegrass (Lolium perenne); test: Post-emergence foliar spray, herbicidal/growth regulant response, ryegrass; assay type: in vivo; conditions: 168 h, foliar spray 11.2 kg/ha, 7 days, 0=no effect, 100=complete kill, read-out: herbicidal or growth regulant response index
Description: (§6) Seeds of the plant species listed below were sown in anodised aluminium pans, 19 cm long×9.5 cm wide×5 cm deep, containing John Innes I potting compost. They were then watered and placed in a controlled environment room (22° C.; 65-85% relative humidity; 14 hours per day artificial illumination at 13,000 lux). Fourteen days after sowing, the seedlings received a foliar spray of a compound listed below, formulated as a solution in 1:1 by volume aqueous acetone. The concentration of active ingredient and volume of application were adjusted so as to be equivalent to a rate of 11.2 kg/ha in 450 liters per hectare. After seven days growth in the controlled environment room, the plants were visually assessed for any herbicidal or growth regulant response. All differences from the untreated control were scored according to an index where 0=no effect and 100=complete kill.
(§7) The product of Example 95 was tested according to the procedure of Examples 49-55.

[6] = tested on: Peas (Pisum sativum); test: Soil incorporation (attaclay/sand dust), growth regulatory or herbicidal effects, peas; assay type: in vivo; conditions: Lathyrus oleraceus, 504 h, soil incorporation 130 ppm, 21 days, 0=no effect, 100=complete kill/suppression, read-out: growth regulatory or herbicidal effect score
Text: as §1, §2, §3, §4, §5

[7] = tested on: Oat (Avena sativa); test: Post-emergence foliar spray, herbicidal/growth regulant response, oat; assay type: in vivo; conditions: 168 h, foliar spray 11.2 kg/ha, 7 days, 0=no effect, 100=complete kill, read-out: herbicidal or growth regulant response index
Description: as §6, §7

[8] = tested on: Maize (Zea mays); test: Soil incorporation (attaclay/sand dust), growth regulatory or herbicidal effects, maize; assay type: in vivo; conditions: 504 h, soil incorporation 130 ppm, 21 days, 0=no effect, 100=complete kill/suppression, read-out: growth regulatory or herbicidal effect score
Text: as §1, §2, §3, §4, §5

[9] = tested on: Peas (Pisum sativum); test: Post-emergence foliar spray, herbicidal/growth regulant response, peas; assay type: in vivo; conditions: Lathyrus oleraceus, 168 h, foliar spray 11.2 kg/ha, 7 days, 0=no effect, 100=complete kill, read-out: herbicidal or growth regulant response index
Description: as §6, §7

[10] = tested on: Pythium ultimum; test: Fungal growth on the surface of soil infected with damping-off disease organism; assay type: in vivo; conditions: 6 days, 25° C., 0-8 scale
Description: (§8) A one week old maize meal/sand culture of the damping-off disease organism Pythium ultimum was thoroughly mixed by hand with clean sterile John Innes No. 1 potting compost in the ratio of 3 kg culture to 12 liters of soil. The infected soil was then left for approximately 18 hours before use. Each of the compounds listed below was ground together with a wetting agent, Tween 20 (1% of final volume), until a solution or fine suspension was produced which was then diluted with distilled water to give 160 ml of solution containing 1500, 500, 150 or 50 ppm active ingredient. 15 ml aliquots of this solution were added to 75 g portions of the soil infected with Pythium ultimum which were contained in small plastic cartons, 60 mm diameter×55 mm high. Fifteen cabbage seeds, variety Flower of Spring, were placed in a circular depression in the treated infected soil, recovered, and the whole sealed with a plastic cap. The cartons were then placed in a constant temperature room at 25° C.±1° C. Four replications per treatment were made with one additional treatment where seeds were sown in soil which was chemically treated only, i.e. there was no infection. This latter treatment was included to measure the direct effect of the chemical on the germination of the seed. After six days the cartons were removed from the controlled temperature chamber and assessed for degree of fungal growth on the soil surface and percentage of seedling emergence. The results of both these assessments are expressed in a 0-8 scale as follows:
(§9) One week old maize meal/sand culture of the damping-off disease organism Pythium ultimum was thoroughly mixed by hand with clean sterile John Innes No. 1 potting compost in the ratio of 3 kg culture to 12 liters of soil. This infected soil was then left for approximately 18 hours before use. The compounds listed in the Table below were each ground with the wetting agent Tween 20 (1% of final volume), until a solution or fine suspension was produced, which was then diluted with distilled water to give 160 ml of solution containing 1500 or 500 parts per million (ppm) active ingredient. 15 ml aliquots of this solution were added to 75 g portions of the soil infected with Pythium ultimum which were contained in small plastic cartons, 60 mm diameter×55 mm high.
(§10) Fifteen cabbage seeds, variety Flower of Spring, were placed in a circular depression in the treated infected soil, recovered, and the whole sealed with a plastic cap. The cartons were then placed in a constant temperature room at 25° C.±1° C. Four replications per treatment were made, with one additional treatment where seeds were sown in soil which was chemically treated only, i.e. there was no infection. This latter treatment was included to measure the direct effect of the chemical on the germination of the seed.
(§11) After six days, the cartons were removed from the controlled temperature chamber and assessed for degree of fungal growth on the soil surface and percentage of seedling emergence. The results of both these assessments are expressed in a 0-8 scale as follows:
(§12) N-(2-oxopropyl)-3',4'-dimethyl-methanesulphonanilide was tested at a dose rate of 300 ppm in the test described in Examples 233 and 234. It gave a mycelial control score of 0 and a germination score of 3 whereas the untreated samples gave a score of 0 for both.

[11] = tested on: Sugarbeet (Beta vulgaris); test: Post-emergence foliar spray, herbicidal/growth regulant response, sugarbeet; assay type: in vivo; conditions: 168 h, foliar spray 11.2 kg/ha, 7 days, 0=no effect, 100=complete kill, read-out: herbicidal or growth regulant response index
Description: as §6, §7

[12] = tested on: Linseed (Linum usitatissimum); test: Post-emergence foliar spray, herbicidal/growth regulant response, linseed; assay type: in vivo; conditions: 168 h, foliar spray 11.2 kg/ha, 7 days, 0=no effect, 100=complete kill, read-out: herbicidal or growth regulant response index
Description: as §6, §7

[13] = tested on: Oats (Avena sativa); test: Soil incorporation (attaclay/sand dust), growth regulatory or herbicidal effects, oats; assay type: in vivo; conditions: 504 h, soil incorporation 130 ppm, 21 days, 0=no effect, 100=complete kill/suppression, read-out: growth regulatory or herbicidal effect score
Text: as §1, §2, §3, §4, §5

[14] = tested on: Mustard (Sinapis alba); test: Post-emergence foliar spray, herbicidal/growth regulant response, mustard; assay type: in vivo; conditions: 168 h, foliar spray 11.2 kg/ha, 7 days, 0=no effect, 100=complete kill, read-out: herbicidal or growth regulant response index
Description: as §6, §7

[15] = tested on: Mustard (Sinapis alba); test: Soil incorporation (attaclay/sand dust), growth regulatory or herbicidal effects, mustard; assay type: in vivo; conditions: 504 h, soil incorporation 130 ppm, 21 days, 0=no effect, 100=complete kill/suppression, read-out: growth regulatory or herbicidal effect score
Text: as §1, §2, §3, §4, §5

[16] = tested on: Pythium ultimum; test: Cabbage seedling emergence in soil infected with Pythium ultimum; assay type: in vivo, Pythium ultimum (on cabbage, variety Flower of Spring); conditions: 6 days, 25° C., 0-8 scale
Description: as §8, §9, §10, §11, §12

[17] = tested on: Linseed (Linum usitatissimum); test: Soil incorporation (attaclay/sand dust), growth regulatory or herbicidal effects, linseed; assay type: in vivo; conditions: 504 h, soil incorporation 130 ppm, 21 days, 0=no effect, 100=complete kill/suppression, read-out: growth regulatory or herbicidal effect score
Text: as §1, §2, §3, §4, §5

Cc1cccc(C)c1N(CC1(C)OCCO1)S(C)(=O)=O [Example 231, N-[(2-methyl-1,3-dioxolan-2-yl)methyl]-2',6'-dimethylmethanesulphonanilide]
% Control, potato blight ([1]; 2,000 ppm): 98%

CC(=O)CN(c1c(C)cccc1C)S(C)(=O)=O [Example 211, N-2-oxopropyl-2',6'-dimethyl-methanesulphonanilide]
% Control, potato blight ([1]; 125 ppm): 90% | % Control, potato blight ([1]; 500 ppm): 94% | % Control, potato blight ([1]; 2,000 ppm): 99%

COC(C)(CN(c1c(C)cccc1C)S(C)(=O)=O)OC [Example 224, N-(2,2-dimethoxypropyl)-2',6'-dimethyl-methanesulphonanilide]
% Control, potato blight ([1]; 500 ppm): 55% | % Control, potato blight ([1]; 2,000 ppm): 98%

CCc1ccccc1N(C(C)C(=O)N1CCOCC1)S(C)(=O)=O (stereo not shown) [Example 41]
% Control, potato blight ([2]; 2000 ppm): 93%

CS(=O)(=O)N(CCCC#N)c1ccc(Cl)c(Cl)c1 [Example 147]
% Control, barley powdery mildew [3]: 96%

Cc1ccc(N(CCCC#N)S(C)(=O)=O)cc1C [Example 148]
% Control, barley powdery mildew [3]: 89%

CCOC(=O)C(C)N(c1c(C)cccc1C)S(=O)(=O)CC (stereo not shown) [Example 26, N-(1-[ethoxycarbonyl]ethyl)-2',6'-dimethyl-ethanesulphonanilide]
pest or weed control at 130 µg/mL [4]: 100% | pest or weed control at 11200 g/ha [5]: 40% | pest or weed control at 130 µg/mL [6]: 100% | plant injury at 11200 g/ha [7]: 40% | plant injury at 130 µg/mL [8]: 100% | pest or weed control at 11200 g/ha [9]: 5% | Mycelial Control Score ([10]; 30 ppm): 0 (<20% inhibition) | Mycelial Control Score ([10]; 100 ppm): 0 (<20% inhibition) | Mycelial Control Score ([10]; 300 ppm): 0 (<20% inhibition) | plant injury at 11200 g/ha [11]: 90% | pest or weed control at 11200 g/ha [12]: 100% | plant injury at 130 µg/mL [13]: 100% | pest or weed control at 11200 g/ha [14]: 100% | pest or weed control at 130 µg/mL [15]: 100% | Germination Score ([16]; 30 ppm): 3 (45-54% inhibition) | Germination Score ([16]; 100 ppm): 4 (55-64% inhibition) | Germination Score ([16]; 300 ppm): 4 (55-64% inhibition) | pest or weed control at 130 µg/mL [17]: 100%

CCCS(=O)(=O)N(CC#N)c1ccc(Cl)c(Cl)c1 [Example 132]
% Control, potato blight ([2]; 500 ppm): 59% | % Control, potato blight ([2]; 2000 ppm): 76%

Cc1cccc(C)c1N(CC#N)S(C)(=O)=O [Example 46]
% Control, potato blight ([2]; 2000 ppm): 56% | pest or weed control at 130 µg/mL [4]: 80% | pest or weed control at 130 µg/mL [6]: 20% | plant injury at 130 µg/mL [8]: 30% | plant injury at 130 µg/mL [13]: 70% | pest or weed control at 130 µg/mL [15]: 100% | pest or weed control at 130 µg/mL [17]: 90%

Cc1cccc(C)c1N(CCCC#N)S(C)(=O)=O [Example 146]
% Control, barley powdery mildew [3]: 92%
